Assay results: paper PMC8297771 (PLoS Pathogens, 2021)
Where two headings read alike, the source gives them in different places.

Experiments:
HIV-1_89.6 = assay: In vitro anti-viral assay in CEMx174 cells (p24); assay type: cell-based; details: HIV-1 89.6 / CEMx174 cells; read-out: IC50
Description: (§1) CEMx174 cells were infected with HIV-1 primary isolate 89.6 (From infectious clone p89.6, NIH AIDS Reagent Program) at approximately at 10% of cell population determined by FACS analyses. To determine antiviral activity during virus production, STP0404 was added at concentration in the range of 0.1 nM—10 μM during media exchange at 4 hrs post-infection. DMSO was used as a negative control. Cell-free supernatants were measured for p24 antigen production, 5 days post-infection. The anti-HIV-1 efficacy of the two enantiomers of STP0404 were also determined by using the same protocol. All assays were conducted in triplicates. The IC50 values were computed using GraphPad Prism (Version 9) and presented as means ± S.D. of the triplicates. For SIVmac239, CEMx174 cells were infected with viral supernatant containing SIVmac293 at 50,000 TCID50/mL (kind gift from Dr. G. Silvestri, Emory Yerkes National Primate Research Center) with 100 μL/10^6 cells at varying concentrations of STP0404, BI224436, and Raltegravir, and the same above protocol was followed except for that p27 capsid antigen content was measured daily for 5 days post infection.

HIV-1NL4-3 = assay: In vitro anti-viral assay in human PBMCs (RT activity readout); assay type: cell-based; details: for TI (TC50 / IC50): minimal TI from IC50 and 10 μM
Description: (§2) For the assay with human PBMCs, PHA stimulated cells from at least two pooled healthy were infected with HIV-1 strains in 96-well plates. Test drug dilutions, which were prepared at a 2X concentration in microtiter tubes and 100 μL of each concentration (nine total concentrations), were placed in appropriate wells using the standard format. 50 μL of a predetermined dilution of virus stock was placed in each test well (final MOI ≅ 0.1). The PBMC cultures were maintained for 7 days following infection at 37 °C, 5% CO2. After this period, cell-free supernatant samples were collected for analysis of reverse transcriptase (RT) activity. All assays were conducted in triplicates. For RT assay, a microtiter plate-based reverse transcriptase (RT) reaction was utilized (Buckheit et al., AIDS Research and Human Retroviruses 7:295–302, 1991). Tritiated thymidine triphosphate (^3H-TTP, 80 Ci/mmol, NEN) is received in 1:1 dH2O: Ethanol at 1 mCi/mL. Poly rA:oligo dT template:primer (GE Healthcare) was prepared as a stock solution by combining 150 μL poly rA (20 mg/mL) with 0.5 mL oligo dT (20 units/mL) and 5.35 mL sterile dH2O followed by aliquoting (1.0 mL) and storage at—20°C. The RT reaction buffer was prepared fresh on a daily basis and consisted of 125 μL 1.0 M EGTA, 125 μL dH2O, 125 μL 20% Triton X100, 50 μL 1.0 M Tris (pH 7.4), 50 μL 1.0 M DTT, and 40 μL 1.0 M MgCl2. The final reaction mixture was prepared by combining 1 part ^3H-TTP, 4 parts dH2O, 2.5 parts poly rA:oligo dT stock and 2.5 parts reaction buffer. Ten microliters of this reaction mixture were placed in a round bottom microtiter plate and 15 μL of virus containing supernatant is added and mixed. The plate was incubated at 37°C for 60 mins. Following incubation, the reaction volume was spotted onto DE81 filter-mats (Wallac), washed 5 times for 5 mins each in a 5% sodium phosphate buffer or 2X SSC (Life Technologies). Next they were washed 2 times for 1 min each in distilled water, 2 times for 1 min each in 70% ethanol, and then dried. Incorporated radioactivity (counts per min, CPM) was quantified using standard liquid scintillation techniques. These PBMC analysis was conducted by fee to service through Southern Research Institute (Frederick, MD, USA). The IC50 were analyzed using GraphPad Prism (Version 9) and presented as means ± S.D. of the triplicates.

[1] = system: Ral-resistant (8070_1) clinical isolate; assay: as above; assay type: cell-based, HIV-1; details: for TI (TC50 / IC50): human PBMCs, Ral-resistant (8070_1)
Description: as §2

[2] = system: Ral-resistant (1556_1) clinical isolate; assay: as above; assay type: cell-based, HIV-1
Description: as §2

[3] = system: Ral-resistant (8070_2) clinical isolate; assay: as above; assay type: cell-based, HIV-1
Description: as §2

[4] = system: Ral-resistant (4736_4) clinical isolate; assay: as above; assay type: cell-based, HIV-1
Description: as §2

[5] = system: Ral-resistant (4736_2) clinical isolate; assay: as above; assay type: cell-based, HIV-1
Description: as §2

MT4 cells = assay: Tissue culture cytotoxicity measurement in MT4 cells; assay type: cell-based
From the text: Fig 1 ALLINI structures and STP0404 activities. […] Pyridine-based KF116, D. Pyrrolopyridine-based STP0404. The conserved chemical moiety containing tert-butoxy and carboxylic acid groups are marked by “]”.

human PBMCs = assay: Tissue culture cytotoxicity measurement in human PBMCs; assay type: cell-based; details: human PBMCs
From the text: Multiple chemical scaffolds such as quinoline (BI224436, Fig 1A), benzothiazole (GS-9822, Fig 1B) and pyridine (KF116, Fig 1C) were previously explored for the discovery of ALLINIs. Here, we employed the pyrrolopyridine-based scaffold to synthesize an ALLINI candidate compound, STP0404 (Fig 1D). STP0404 harbors the tert-butoxy moiety that is common to other ALLINIs (Fig 1). First, we measured its in vitro anti-HIV-1 efficacy and cytotoxicity using various HIV-1 strains in multiple cell types, with cytotoxicity initially tested up to 10 μM (Table 1). […] The calculated in vitro minimum therapeutic index (TI) of STP0404 under these conditions was accordingly >25,000. For comparison, we employed two FDA-approved HIV-1 inhibitors, AZT (RT inhibitor) and Raltegravir (Ral, INSTI), alongside 5 different Ral-resistant clinical isolates (Table 1).

HIV-1 NL4-3 = assay: In vitro anti-viral assay in MT4 cells; assay type: cell-based
[6] = system: HIV-1_89.6 passage 14 viral population (Y99H and A128T); assay: Susceptibility of STP0404-selected viral population, passage 14, in CEMx174 cells; assay type: cell-based; details: passage 14 viral population (Y99H and A128T) vs wild type HIV-1_89.6
Description: CEM x174 cells infected with HIV primary isolate 89.6 were cultured in the presence of STP0404 at the concentration of IC90 determined earlier. At each passage, cells from original culture in the presence of inhibitor (0.75x10^6 cells) were mixed with equal amount of no-drug control cells to propagate, and viral replication was monitored by the production of p24 antigen in the supernatant. […] The population of drug-induced mutations at each passage mentioned above was determined by sequencing of at least 10 resulting transformants.
CEM x174 cells were infected with cell-free viral supernatant collected during virus resistance assays above. […] The viral stocks were normalized by the amount of p24 capsid antigen, determined to infect CEMx174 cells at approximately 10% of populations (10,000 pg / 10^6 cells). […] Cell-free supernatants were measured for p24 antigen production 5 days post-infection. p89.6 plasmid was applied for Quickchange kit (Invitrogen) to create Y99H single, A128T single, Y99H/A128T double mutants as well as two natural variants (A124N and T125A), and these 89.6 variant viruses were generated by transfecting 293T cells and culturing the produced viruses in CEMx174 cells. The IC50 of STP0404 against respective viruses were analyzed using GraphPad Prism (Version 9) and presented as means ± S.D. of triplicates. […]

SIVmac239 = assay: In vitro efficacy test against SIVmac239 in CEMx174 cells (p27); assay type: cell-based, SIV; details: p27 assay
Description: as §1, with “The IC50 values were computed using GraphPad Prism (Version 9) and presented as means ± S.D. of the triplicates.” left out
Supplementary file ppat.1009671.s004.tiff: S1 Fig In vitro efficacy tests of STP0404, BI224436 and Raltegravir against SIVmac239 in CEMx174 cell culture. CEMx174 cells were infected with SIVmac239 with various concentrations of STP0404, BI224436, and Raltegravir, and the viral production was determined by p27 assay at 5 days post infection. […]

[7] = column under Ral-resistant (1556_1)
[8] = column under Ral-resistant (4736_2)
[9] = column under Ral-resistant (4736_4)
[10] = column under Ral-resistant (8070_1)
[11] = column under Ral-resistant (8070_2)
[12] = Human immunodeficiency virus 1, PBMC

SMILES	TI (TC50 / IC50) (HIV-1NL4-3; human PBMCs, NL4-3)	TI (TC50 / IC50) [1]	TI (TC50 / IC50) [2]	TI (TC50 / IC50) [3]	TC50 (MT4 cells)	TC50 (human PBMCs; NL4-3, tested up to 10 μM)	TC50 (human PBMCs; [7])	TC50 (human PBMCs; [8])	TC50 (human PBMCs; [9])	TC50 (human PBMCs; [10])	TC50 (human PBMCs; [11])	TI (TC50 / IC50) (HIV-1 NL4-3; HIV-1 NL4-3 / MT4 cells)	other results
Cc1nc2c(c(C)c(C)n2Cc2cnn(C)c2)c(-c2ccc(Cl)cc2)c1[C@H](OC(C)(C)C)C(=O)O [(S) form]	–	–	–	–	–	–	–	–	–	–	–	–	IC50 (HIV-1_89.6): 1.3 nM
Cc1cn([C@H]2C[C@H](N=[N+]=[N-])[C@@H](CO)O2)c(=O)[nH]c1=O [AZT]	>1,121	>1,490	>1,000	>125	> 10,000 nM	>10,000 nM	>10,000 nM	>10,000 nM	>10,000 nM	>10,000 nM	>10,000 nM	> 179	IC50 (HIV-1NL4-3; human PBMCs, NL4-3, mean of triplicates ± SD, read-out: IC50): 8.92 ± 2.08 nM; IC50 [2]: 9.33 ± 0.22 nM; IC50 [3]: 79.9 ± 11.8 nM; IC50 ([4]; human PBMCs, Ral-resistant (4736_4), read-out: IC50): 6.71 ± 5.74 nM; TI (TC50 / IC50) ([5]; human PBMCs, Ral-resistant (4736_2)): >23,000; IC50 ([5]; human PBMCs, Ral-resistant (4736_2), read-out: IC50): 0.42 ± 0.37 nM; IC50 (HIV-1 NL4-3; HIV-1 NL4-3 / MT4 cells, read-out: IC50): 56 ± 23.5 nM
Cc1nc2ccccc2c(-c2ccc3c4c(ccnc24)CCO3)c1[C@H](OC(C)(C)C)C(=O)O [BI224436, reference compound]	–	–	–	–	–	–	–	–	–	–	–	–	IC50 fold increase [6]: 40.5 fold; inhibition of SIVmac239 (SIVmac239): failed to inhibit
Cc1nnc(C(=O)NC(C)(C)c2nc(C(=O)NCc3ccc(F)cc3)c(O)c(=O)n2C)o1 [Raltegravir]	>22,700	~10	~20	~100	> 10,000 nM	>10,000 nM	>10,000 nM	>10,000 nM	>10,000 nM	>10,000 nM	>10,000 nM	> 2,710	IC50 (HIV-1NL4-3; Human immunodeficiency virus 1, NL43, PBMC): 0.44 ± 0.74 nM; IC50 [1, 12]: > 1000 nM; IC50 [2, 12]: > 500 nM; IC50 [3, 12]: > 100 nM; IC50 [4, 12]: 36.5 ± 53.6 nM; TI (TC50 / IC50) ([4]; human PBMCs, Ral-resistant (4736_4)): >270; IC50 [5, 12]: > 50 nM; IC50 (HIV-1 NL4-3; Human immunodeficiency virus 1, NL43, MT4): 3.69 ± 2.8 nM
